Source: US20260356819A1, “OXOISOINDOLINYL-SUBSTITUTED […] DERIVATIVE AND USE THEREOF” (GLUETACS THERAPEUTICS (SHANGHAI) CO., LTD., priority 2023, published 2026)

Legend:
Type in all cases: cell-based
Conditions in all cases: compounds at 50 nM and 500 nM
WEE1 = target: T1, WEE1 (Homo sapiens, UniProt P30291+Q96SW2); experiment: Western blot degradation of WEE1 in hPBMCs (24 h)
T1 construct: The supernatant was aspirated as the extracted total cell protein; endogenous in cells; host or cells: human peripheral blood mononuclear cells (hPBMCs)
Summary of the method: (§1)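 hPBMCs (1×10^6 cells/mL) were treated with compound at 50 nM and 500 nM for 24 h, lysed in RIPA with protease inhibitors and analysed by SDS-PAGE/Western blot. Band grayscale, normalised to internal control, gave protein remaining (%); DC50 estimated versus DMSO bands.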

IKZF1 = target: T2, IKZF1 (Homo sapiens, UniProt Q13422+Q96SW2); experiment: Western blot degradation of IKZF1 in hPBMCs (24 h)
T2 construct: The supernatant was aspirated as the extracted total cell protein; endogenous in cells; host or cells: human peripheral blood mononuclear cells (hPBMCs)
T2 sequence (Q13422 whole entry): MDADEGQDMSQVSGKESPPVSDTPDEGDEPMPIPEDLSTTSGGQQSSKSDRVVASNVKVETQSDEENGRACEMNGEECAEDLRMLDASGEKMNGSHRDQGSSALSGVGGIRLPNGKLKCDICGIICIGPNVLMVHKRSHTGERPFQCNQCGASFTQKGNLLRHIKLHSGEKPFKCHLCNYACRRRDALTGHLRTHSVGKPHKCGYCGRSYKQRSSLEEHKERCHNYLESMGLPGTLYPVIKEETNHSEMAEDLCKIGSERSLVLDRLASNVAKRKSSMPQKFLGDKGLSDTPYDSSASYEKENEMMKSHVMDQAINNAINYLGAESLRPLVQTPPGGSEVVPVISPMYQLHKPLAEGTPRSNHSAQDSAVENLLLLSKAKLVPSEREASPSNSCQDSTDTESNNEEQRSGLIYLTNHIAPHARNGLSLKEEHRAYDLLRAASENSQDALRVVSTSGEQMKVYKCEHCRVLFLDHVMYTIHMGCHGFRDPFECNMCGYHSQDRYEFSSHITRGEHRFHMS
T2 sequence (Q96SW2 whole entry): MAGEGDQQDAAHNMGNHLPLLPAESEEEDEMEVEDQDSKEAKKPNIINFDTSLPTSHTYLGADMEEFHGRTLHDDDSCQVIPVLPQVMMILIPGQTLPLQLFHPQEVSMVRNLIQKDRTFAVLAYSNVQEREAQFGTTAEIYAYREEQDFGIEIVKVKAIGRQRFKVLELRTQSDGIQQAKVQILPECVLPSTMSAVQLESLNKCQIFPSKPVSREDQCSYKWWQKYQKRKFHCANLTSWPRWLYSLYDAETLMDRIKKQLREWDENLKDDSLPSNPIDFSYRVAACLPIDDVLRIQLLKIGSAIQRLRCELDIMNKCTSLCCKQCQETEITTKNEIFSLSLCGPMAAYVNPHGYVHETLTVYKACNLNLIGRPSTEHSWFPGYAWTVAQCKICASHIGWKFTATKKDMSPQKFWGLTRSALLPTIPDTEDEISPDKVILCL
T2 sequence (Q16531 whole entry partner): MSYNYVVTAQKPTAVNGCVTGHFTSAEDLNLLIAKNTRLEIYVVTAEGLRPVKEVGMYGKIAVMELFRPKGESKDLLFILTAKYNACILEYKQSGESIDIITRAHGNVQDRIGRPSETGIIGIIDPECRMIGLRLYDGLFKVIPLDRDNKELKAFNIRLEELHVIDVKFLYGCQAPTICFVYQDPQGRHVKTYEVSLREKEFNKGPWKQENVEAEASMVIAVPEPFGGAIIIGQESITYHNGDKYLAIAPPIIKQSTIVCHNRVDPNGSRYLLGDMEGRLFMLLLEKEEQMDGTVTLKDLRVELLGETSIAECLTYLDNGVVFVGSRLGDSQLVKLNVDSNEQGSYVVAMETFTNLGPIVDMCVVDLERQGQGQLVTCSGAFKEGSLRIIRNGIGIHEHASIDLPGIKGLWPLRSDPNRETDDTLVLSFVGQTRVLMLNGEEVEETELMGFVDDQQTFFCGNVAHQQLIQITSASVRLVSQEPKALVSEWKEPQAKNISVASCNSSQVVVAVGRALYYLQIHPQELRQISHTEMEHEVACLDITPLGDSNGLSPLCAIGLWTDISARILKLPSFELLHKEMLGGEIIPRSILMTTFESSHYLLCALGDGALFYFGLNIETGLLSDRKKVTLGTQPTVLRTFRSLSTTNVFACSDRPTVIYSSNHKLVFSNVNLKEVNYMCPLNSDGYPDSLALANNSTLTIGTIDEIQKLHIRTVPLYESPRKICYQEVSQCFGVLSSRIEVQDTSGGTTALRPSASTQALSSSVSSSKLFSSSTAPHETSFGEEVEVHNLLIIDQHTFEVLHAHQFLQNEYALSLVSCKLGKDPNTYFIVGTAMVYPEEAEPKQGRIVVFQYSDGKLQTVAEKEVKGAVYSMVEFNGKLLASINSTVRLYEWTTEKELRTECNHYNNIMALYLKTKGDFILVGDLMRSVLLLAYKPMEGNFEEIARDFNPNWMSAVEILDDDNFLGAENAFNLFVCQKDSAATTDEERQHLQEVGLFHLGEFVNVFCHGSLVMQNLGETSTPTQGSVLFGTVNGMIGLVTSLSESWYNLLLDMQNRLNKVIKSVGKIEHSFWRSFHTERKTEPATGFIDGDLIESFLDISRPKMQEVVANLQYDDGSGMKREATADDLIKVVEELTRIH
Summary of the method: as §1

IKZF2 = target: T3, IKZF2 (Homo sapiens, UniProt Q96SW2+Q9UKS7); experiment: Western blot degradation of IKZF2 in hPBMCs (24 h)
T3 construct: The supernatant was aspirated as the extracted total cell protein; endogenous in cells; host or cells: human peripheral blood mononuclear cells (hPBMCs)
T3 sequence (Q9UKS7 whole entry): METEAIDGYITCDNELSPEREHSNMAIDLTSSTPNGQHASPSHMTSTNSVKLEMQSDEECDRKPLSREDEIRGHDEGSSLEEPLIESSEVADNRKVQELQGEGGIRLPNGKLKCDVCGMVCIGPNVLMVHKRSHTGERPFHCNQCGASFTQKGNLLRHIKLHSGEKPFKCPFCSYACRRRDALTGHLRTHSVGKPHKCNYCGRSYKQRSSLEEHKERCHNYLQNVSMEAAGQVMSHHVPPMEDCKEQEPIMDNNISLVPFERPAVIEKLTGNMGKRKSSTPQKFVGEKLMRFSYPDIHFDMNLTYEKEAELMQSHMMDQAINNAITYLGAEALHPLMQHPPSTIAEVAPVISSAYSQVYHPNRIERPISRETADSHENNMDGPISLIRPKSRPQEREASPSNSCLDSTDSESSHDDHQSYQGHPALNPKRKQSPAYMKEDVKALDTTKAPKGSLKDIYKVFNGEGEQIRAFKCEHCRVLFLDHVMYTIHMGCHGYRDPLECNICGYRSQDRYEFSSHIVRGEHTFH
T3 sequence (Q96SW2 whole entry): as the sequence (Q96SW2 whole entry) above
T3 sequence (Q16531 whole entry partner): as the sequence (Q16531 whole entry partner) above
Summary of the method: as §1

IKZF3 = target: T4, IKZF3 (Homo sapiens, UniProt Q96SW2+Q9UKT9); experiment: Western blot degradation of IKZF3 in hPBMCs (24 h)
T4 construct: The supernatant was aspirated as the extracted total cell protein; endogenous in cells; host or cells: human peripheral blood mononuclear cells (hPBMCs)
T4 sequence (Q9UKT9 whole entry): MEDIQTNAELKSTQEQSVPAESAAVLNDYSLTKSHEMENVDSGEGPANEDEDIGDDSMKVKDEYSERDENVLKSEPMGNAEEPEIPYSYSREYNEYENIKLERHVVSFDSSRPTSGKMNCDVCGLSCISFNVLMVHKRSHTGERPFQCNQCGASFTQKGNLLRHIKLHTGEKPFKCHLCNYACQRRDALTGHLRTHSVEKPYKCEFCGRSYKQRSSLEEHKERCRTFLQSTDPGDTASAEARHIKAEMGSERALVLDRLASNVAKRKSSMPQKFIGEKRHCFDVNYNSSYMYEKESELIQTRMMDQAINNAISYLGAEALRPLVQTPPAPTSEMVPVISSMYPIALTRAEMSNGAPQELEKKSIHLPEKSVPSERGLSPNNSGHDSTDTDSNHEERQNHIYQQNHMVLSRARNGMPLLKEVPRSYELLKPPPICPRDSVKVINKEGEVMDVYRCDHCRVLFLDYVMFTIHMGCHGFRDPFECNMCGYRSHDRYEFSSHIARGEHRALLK
T4 sequence (Q96SW2 whole entry): as the sequence (Q96SW2 whole entry) above
T4 sequence (Q16531 whole entry partner): as the sequence (Q16531 whole entry partner) above
Summary of the method: as §1

CK1α = target: T5, CK1α (Homo sapiens, UniProt P48729+Q96SW2); experiment: Western blot degradation of CK1α in hPBMCs (24 h)
T5 construct: The supernatant was aspirated as the extracted total cell protein; endogenous in cells; host or cells: human peripheral blood mononuclear cells (hPBMCs)
T5 sequence (P48729 whole entry): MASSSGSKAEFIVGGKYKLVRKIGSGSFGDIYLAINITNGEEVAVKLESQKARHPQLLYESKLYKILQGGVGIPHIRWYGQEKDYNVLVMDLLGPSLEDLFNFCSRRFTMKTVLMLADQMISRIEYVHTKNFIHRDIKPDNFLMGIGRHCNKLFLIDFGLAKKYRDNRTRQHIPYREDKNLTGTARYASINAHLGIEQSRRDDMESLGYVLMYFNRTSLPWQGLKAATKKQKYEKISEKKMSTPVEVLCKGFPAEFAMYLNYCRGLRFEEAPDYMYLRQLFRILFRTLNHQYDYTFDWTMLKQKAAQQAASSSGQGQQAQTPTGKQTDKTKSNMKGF
T5 sequence (Q96SW2 whole entry): as the sequence (Q96SW2 whole entry) above
T5 sequence (Q16531 whole entry partner): as the sequence (Q16531 whole entry partner) above
Summary of the method: as §1

GSPT1 = target: T6, GSPT1 (Homo sapiens, UniProt P15170+Q96SW2); experiment: Western blot degradation of GSPT1 in hPBMCs (24 h)
T6 construct: The supernatant was aspirated as the extracted total cell protein; endogenous in cells; host or cells: human peripheral blood mononuclear cells (hPBMCs)
T6 sequence (P15170 whole entry): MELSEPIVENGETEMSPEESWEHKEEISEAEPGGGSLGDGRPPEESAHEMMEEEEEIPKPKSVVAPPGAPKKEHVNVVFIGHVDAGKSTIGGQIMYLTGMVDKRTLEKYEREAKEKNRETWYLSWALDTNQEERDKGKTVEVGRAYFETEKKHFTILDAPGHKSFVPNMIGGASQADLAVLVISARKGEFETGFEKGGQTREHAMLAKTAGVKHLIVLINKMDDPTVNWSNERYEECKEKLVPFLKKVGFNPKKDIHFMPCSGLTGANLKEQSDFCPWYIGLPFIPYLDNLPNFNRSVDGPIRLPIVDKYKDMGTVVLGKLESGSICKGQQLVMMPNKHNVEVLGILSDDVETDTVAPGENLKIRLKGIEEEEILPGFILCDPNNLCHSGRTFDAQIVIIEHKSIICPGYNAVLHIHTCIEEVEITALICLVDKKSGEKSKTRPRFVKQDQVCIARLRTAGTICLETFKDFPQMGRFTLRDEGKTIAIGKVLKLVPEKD
T6 sequence (Q96SW2 whole entry): as the sequence (Q96SW2 whole entry) above
T6 sequence (Q16531 whole entry partner): as the sequence (Q16531 whole entry partner) above
Summary of the method: as §1

SMILES | WEE1 substrate protein remaining % (WEE1) | IKZF1 substrate protein remaining % (IKZF1) | IKZF2 substrate protein remaining % (IKZF2) | IKZF3 substrate protein remaining % (IKZF3) | CK1α substrate protein remaining % (CK1α) | GSPT1 substrate protein remaining % (GSPT1)
O=C1CCN(N2C(=O)c3ccc(CN4CCN(c5ccc(Cl)cc5)CC4)cc3C2=O)C(=O)N1 [GT-06783, 5-((4-(4-chlorophenyl)piperazin-1-yl)methyl)-2-(2,4-dioxotetrahydropyrimidin-1(2H)-yl)isoindoline-1,3-dione] | B (80%< substrate protein remaining % ≤100%) | B (80%< substrate protein remaining % ≤100%) | B (80%< substrate protein remaining % ≤100%) | A (0% ≤ substrate protein remaining % ≤80%) | B (80%< substrate protein remaining % ≤100%) | B (80%< substrate protein remaining % ≤100%)
O=C1CCN(N2C(=O)c3ccc(CN4CCN(c5ccc(Br)cc5)CC4)cc3C2=O)C(=O)N1 [GT-06784, 5-((4-(4-bromophenyl)piperazin-1-yl)methyl)-2-(2,4-dioxotetrahydropyrimidin-1(2H)-yl)isoindoline-1,3-dione] | B (80%< substrate protein remaining % ≤100%) | B (80%< substrate protein remaining % ≤100%) | B (80%< substrate protein remaining % ≤100%) | B (80%< substrate protein remaining % ≤100%) | A (0% ≤ substrate protein remaining % ≤80%) | B (80%< substrate protein remaining % ≤100%)
O=C1CCN(N2C(=O)c3ccc(CN4CCN(c5cccc(F)c5F)CC4)cc3C2=O)C(=O)N1 [GT-06793, 5-((4-(2,3-difluorophenyl)piperazin-1-yl)methyl)-2-(2,4-dioxotetrahydropyrimidin-1(2H)-yl)isoindoline-1,3-dione] | B (80%< substrate protein remaining % ≤100%) | B (80%< substrate protein remaining % ≤100%) | A (0% ≤ substrate protein remaining % ≤80%) | B (80%< substrate protein remaining % ≤100%) | B (80%< substrate protein remaining % ≤100%) | B (80%< substrate protein remaining % ≤100%)
O=C1CCN(N2C(=O)c3ccc(CN4CCN(c5c(F)cccc5F)CC4)cc3C2=O)C(=O)N1 [GT-06796, 5-((4-(2,6-difluorophenyl)piperazin-1-yl)methyl)-2-(2,4-dioxotetrahydropyrimidin-1(2H)-yl)isoindoline-1,3-dione] | A (0% ≤ substrate protein remaining % ≤80%) | B (80%< substrate protein remaining % ≤100%) | B (80%< substrate protein remaining % ≤100%) | B (80%< substrate protein remaining % ≤100%) | B (80%< substrate protein remaining % ≤100%) | B (80%< substrate protein remaining % ≤100%)
O=C1CCN(N2C(=O)c3ccc(CN4CCN(c5ccc(F)c(F)c5)CC4)cc3C2=O)C(=O)N1 [GT-06797, 5-((4-(3,4-difluorophenyl)piperazin-1-yl)methyl)-2-(2,4-dioxotetrahydropyrimidin-1(2H)-yl)isoindoline-1,3-dione] | A (0% ≤ substrate protein remaining % ≤80%) | B (80%< substrate protein remaining % ≤100%) | B (80%< substrate protein remaining % ≤100%) | B (80%< substrate protein remaining % ≤100%) | B (80%< substrate protein remaining % ≤100%) | B (80%< substrate protein remaining % ≤100%)
